Measurements taken from ChEMBL document CHEMBL4229487, “Cyclic analogue of S-benzylisothiourea that suppresses kynurenine production without inhibiting indoleamine 2,3-dioxygenase activity” (Bioorg Med Chem Lett, 2018).
pIC50: −log10 of the molar value.

Columns and labels:
A-431 [1] = test: Inhibition of kynurenine production in IFNgamma-treated human A431 cells at 1 uM after 24 hrs in presence of tryptophan relative to control; type: functional; details: A-431, 24 h
[2] = target: Indoleamine 2,3-dioxygenase 1 (Homo sapiens) (UniProt P14902); test: Inhibition of recombinant human IDO at 10 uM using L-tryptophan as substrate after 60 mins relative to control
A-431 [3] = test: Inhibition of kynurenine production in IFNgamma-treated human A431 cells at 10 uM after 24 hrs in presence of tryptophan relative to control; type: functional; details: A-431, 24 h
A-431 [4] = test: Inhibition of kynurenine production in IFNgamma-treated human A431 cells after 24 hrs in presence of tryptophan; type: functional, cell-based; details: A-431, 24 h
A-431 [5] = test: Cytotoxicity against human A431 cells at 100 uM; type: cell-based; details: a-431, 100 µM
A-431 [6] = test: Inhibition of IFNgamma-induced IDO expression in human A431 cells after 24 hrs by Western blot method; type: functional, cell-based
A-431 [7] = test: Inhibition of IFNgamma-induced STAT1 expression in human A431 cells after 24 hrs by Western blot method; type: functional, cell-based
A-431 [8] = test: Cytotoxicity against human A431 cells; type: cell-based

Sequence of Indoleamine 2,3-dioxygenase 1 (Homo sapiens) (P14902 whole entry, looked up): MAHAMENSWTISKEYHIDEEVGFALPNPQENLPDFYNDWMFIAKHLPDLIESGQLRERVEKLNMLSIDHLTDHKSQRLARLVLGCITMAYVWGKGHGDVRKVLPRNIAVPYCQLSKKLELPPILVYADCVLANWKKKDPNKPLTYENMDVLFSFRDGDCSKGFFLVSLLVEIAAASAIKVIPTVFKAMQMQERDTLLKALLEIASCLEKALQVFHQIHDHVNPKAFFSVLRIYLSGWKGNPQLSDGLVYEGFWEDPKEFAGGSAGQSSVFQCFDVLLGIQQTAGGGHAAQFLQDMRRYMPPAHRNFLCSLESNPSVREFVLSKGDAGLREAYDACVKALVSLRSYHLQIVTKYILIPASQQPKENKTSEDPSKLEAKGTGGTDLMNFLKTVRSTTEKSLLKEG

| SMILES | inhibition at 1 µM (A-431 [1]) [%] | inhibition [2] [%] | also measured |
| --- | --- | --- | --- |
| Clc1ccc2[nH]c(SCc3ccccc3Cc3ccccc3)nc2c1 | 13 | 46 | – |
| Clc1ccc2[nH]c(SCc3ccccc3CCCc3ccccc3)nc2c1 | 44 | 19 | – |
| N=C(N)SCc1ccccc1 | – | – | inhibition at 10 µM (A-431 [3]): 44% |
| Clc1ccc2[nH]c(SCc3ccccc3Oc3ccccc3)nc2c1 | 39 | 30 | – |
| [O-][S+](Cc1ccccc1)c1ccccc1CSc1nc2cc(Cl)ccc2[nH]1 (stereo not drawn) | 30 | 11 | – |
| Clc1ccc2[nH]c(SCc3ccccc3/C=C/c3ccccc3)nc2c1 | 15 | -6 | – |
| Clc1ccc2[nH]c(SCc3ccccc3/C=C\c3ccccc3)nc2c1 | – | 49 | pIC50 (A-431 [4]): 6.47; Activity (A-431 [5]): Non-Toxic |
| c1ccc(CCc2ccccc2CSC2=NCCN2)cc1 | 7 | 17 | – |
| Clc1ccc2sc(SCc3ccccc3CCc3ccccc3)nc2c1 | -8 | 9 | – |
| c1ccc(CCc2ccccc2CSc2nccs2)cc1 | 7 | 31 | – |
| Clc1ccc2[nH]c(SCc3ccccc3SCc3ccccc3)nc2c1 | – | 19 | inhibition (A-431 [6]): Dose-dependent effect; inhibition (A-431 [7]): Dose-dependent effect; pIC50 (A-431 [4]): 6.35; Activity (A-431 [5]): Non-Toxic |
| c1ccc(CCc2ccccc2CSc2ncc[nH]2)cc1 | 1 | 19 | – |
| Clc1ccc2oc(SCc3ccccc3CCc3ccccc3)nc2c1 | -18 | 21 | – |
| c1ccc(CCc2ccccc2CSc2nc3ccccc3[nH]2)cc1 | 43 | 43 | Activity (A-431 [8]): Non-Toxic |
| Clc1ccc2[nH]c(SCc3ccccc3CCc3ccccc3)nc2c1 | 48 | 47 | Activity (A-431 [8]): Non-Toxic |
| Clc1ccc2[nH]c(SCc3ccccc3C#Cc3ccccc3)nc2c1 | 6 | 52 | – |
| c1ccc(CCc2ccccc2CSC2=NCCS2)cc1 | 0 | 0 | – |
| O=S(=O)(Cc1ccccc1)c1ccccc1CSc1nc2cc(Cl)ccc2[nH]1 | 1 | 24 | – |
| Clc1ccc2[nH]c(SCc3ccccc3OCc3ccccc3)nc2c1 | 30 | 3 | – |
